Experimental data reported in US7323260B2, “Lubricant, recording medium and carboxylic acid compound” (Sony Corporation, priority 2003, dated 2008).

Test: Evaluation of solubility in solvent
Type: physicochemical
Description: Solubility of lubricants which were used in Examples 1 to 11 and Comparative Example 3 in each of ethanol, acetone and toluene was evaluated. Evaluation results of solubility of the lubricants are shown in Table 10 by evaluation criteria as defined as follows: […]
Solubility of lubricants which were used in Examples 21 to 37 in each of ethanol, acetone and toluene was evaluated. Evaluation results of solubility of lubricants are shown in Table 19 by evaluation criteria as defined as follows: […]

**Q.** For “C18H37CH(COOC12H25)(CH2)2COOCH2CF2(OCF2)p(OCF(CF3)CF2)qOCF3 [Comparative Example 3]”, which “solubility in a hydrocarbon type solvent (in words)” value is on record?
**A.** Its value is “hardly dissolved”.
